Results as given in ChEMBL document CHEMBL1201862, “PubChem BioAssay data set” (2004).
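96-well plates; 48 h exposure; 5 concentrations. Endpoints by linear interpolation between flanking doses. Not reached: highest tested concentration assigned. The concentration for 50% growth inhibition is given as GI50.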 Calls of active or inactive are those of the source. Rule as the data show it: active = GI50 up to about 1.1 µM and inactive = higher.

Tests used:
Experiment in all cases: growth of human tumour cells (NCI), 48 h
HCT-15 = tested on: HCT-15
A498 = tested on: A498
OVCAR-3 = tested on: OVCAR-3
SN12C = tested on: SN12C
A549 = tested on: A549
ACHN = tested on: ACHN
IGROV-1 = tested on: IGROV-1
OVCAR-5 = tested on: OVCAR-5
Malme-3M = tested on: Malme-3M
MDA-N = tested on: MDA-N
COLO 205 = tested on: COLO 205
HOP-92 = tested on: HOP-92
SF-268 = tested on: SF-268
NCI/ADR-RES = tested on: NCI/ADR-RES
SK-MEL-2 = tested on: SK-MEL-2
PC-3 = tested on: PC-3
LOX IMVI = tested on: LOX IMVI
NCI-H460 = tested on: NCI-H460
UACC-257 = tested on: UACC-257
MDA-MB-435 = tested on: MDA-MB-435
HOP-62 = tested on: HOP-62
U-251 = tested on: U-251
MCF7 = tested on: MCF7
UO-31 = tested on: UO-31
KM12 = tested on: KM12
SF-539 = tested on: SF-539
HCT-116 = tested on: HCT-116
UACC-62 = tested on: UACC-62
SNB-75 = tested on: SNB-75
BT-549 = tested on: BT-549
HCC 2998 = tested on: HCC 2998
SK-OV-3 = tested on: SK-OV-3
SK-MEL-5 = tested on: SK-MEL-5
NCI-H522 = tested on: NCI-H522
M14 = tested on: M14
NCI-H23 = tested on: NCI-H23
DU-145 = tested on: DU-145
T47D = tested on: T47D
OVCAR-4 = tested on: OVCAR-4
SW-620 = tested on: SW-620
TK-10 = tested on: TK-10
K562 = tested on: K562
EKVX = tested on: EKVX
NCI-H226 = tested on: NCI-H226
RPMI-8226 = tested on: RPMI-8226
CAKI-1 = tested on: CAKI-1
RXF 393 = tested on: RXF 393
MDA-MB-231 = tested on: MDA-MB-231
SF-295 = tested on: SF-295
SK-MEL-28 = tested on: SK-MEL-28
SNB-19 = tested on: SNB-19
786-0 = tested on: 786-0
HT-29 = tested on: HT-29
OVCAR-8 = tested on: OVCAR-8
Hs-578T = tested on: Hs-578T
HL-60 = tested on: HL-60
MOLT-4 = tested on: MOLT-4
CCRF-CEM = tested on: CCRF-CEM
SR = tested on: SR

Measured: GI50

CC1=NN(c2ccccc2Cl)C2(C1)SCC(=O)N2c1nc2ccccc2s1 (stereo not drawn)
> 100 µM: HCT-15
inactive: A498 > 100 µM | OVCAR-3 > 100 µM | SN12C > 100 µM | A549 > 100 µM | ACHN > 100 µM | IGROV-1 > 100 µM | OVCAR-5 > 100 µM | Malme-3M > 100 µM | MDA-N > 100 µM | COLO 205 > 100 µM | HOP-92 > 100 µM | SF-268 > 100 µM | NCI/ADR-RES > 100 µM | SK-MEL-2 > 100 µM | PC-3 > 100 µM | LOX IMVI > 100 µM | NCI-H460 > 100 µM | UACC-257 > 100 µM | MDA-MB-435 > 100 µM | HOP-62 > 100 µM | U-251 > 100 µM | MCF7 > 100 µM | UO-31 > 100 µM | KM12 > 100 µM | SF-539 > 100 µM | HCT-116 > 100 µM | UACC-62 > 100 µM | SNB-75 > 100 µM | BT-549 > 100 µM | HCC 2998 > 100 µM | SK-OV-3 > 100 µM | SK-MEL-5 > 100 µM | NCI-H522 > 100 µM | M14 > 100 µM | NCI-H23 > 100 µM | DU-145 > 100 µM | T47D > 100 µM | OVCAR-4 > 100 µM | SW-620 > 100 µM | TK-10 > 100 µM | K562 > 100 µM | EKVX > 100 µM | NCI-H226 > 100 µM | RPMI-8226 > 100 µM | CAKI-1 > 100 µM | RXF 393 > 100 µM | MDA-MB-231 > 100 µM | SF-295 > 100 µM | SK-MEL-28 > 100 µM | SNB-19 > 100 µM | 786-0 > 100 µM | HT-29 > 100 µM | OVCAR-8 > 100 µM | Hs-578T > 100 µM

c1cc2cc(Cc3ccc4[nH]ccc4c3)ccc2[nH]1
13.9 µM: HCT-15
inactive: A498 16.6 µM | OVCAR-3 12.8 µM | SN12C 17.4 µM | A549 16.2 µM | ACHN 25.2 µM | IGROV-1 15.9 µM | HL-60 10.7 µM | MOLT-4 10.7 µM | OVCAR-5 19.5 µM | Malme-3M 15.2 µM | MDA-N 12.9 µM | COLO 205 17.5 µM | HOP-92 15.2 µM | CCRF-CEM 21.9 µM | SR 5.78 µM | SF-268 20.6 µM | SK-MEL-2 22.4 µM | PC-3 13.1 µM | LOX IMVI 27.8 µM | NCI-H460 15.8 µM | UACC-257 21.9 µM | MDA-MB-435 16.4 µM | HOP-62 15.7 µM | U-251 15.4 µM | MCF7 14.1 µM | UO-31 16.2 µM | KM12 14.2 µM | SF-539 16.5 µM | HCT-116 17.6 µM | UACC-62 17.2 µM | SNB-75 17.9 µM | BT-549 19.7 µM | HCC 2998 15.3 µM | SK-OV-3 19.5 µM | SK-MEL-5 16.1 µM | NCI-H522 15.6 µM | M14 17.1 µM | NCI-H23 18.6 µM | DU-145 22.9 µM | T47D 15.6 µM | OVCAR-4 7.74 µM | SW-620 23.1 µM | TK-10 22.1 µM | K562 10 µM | EKVX 15.3 µM | NCI-H226 15.9 µM | RPMI-8226 > 10 µM | CAKI-1 17.1 µM | RXF 393 19.6 µM | MDA-MB-231 16.5 µM | SF-295 31 µM | SK-MEL-28 26.4 µM | SNB-19 21.5 µM | 786-0 18.3 µM | HT-29 16.8 µM | Hs-578T 19.9 µM

COc1ccc(CC2c3cc(OC)c(OC)cc3CC[N+]2(C)C)cc1OC (stereo not drawn)
> 100 µM: HCT-15
inactive: A498 > 100 µM | OVCAR-3 > 100 µM | SN12C > 100 µM | A549 > 100 µM | ACHN > 100 µM | IGROV-1 > 100 µM | HL-60 > 100 µM | MOLT-4 > 100 µM | OVCAR-5 > 100 µM | Malme-3M > 100 µM | MDA-N > 100 µM | COLO 205 > 100 µM | HOP-92 > 100 µM | CCRF-CEM > 100 µM | SF-268 > 100 µM | NCI/ADR-RES > 100 µM | SK-MEL-2 > 100 µM | PC-3 > 100 µM | LOX IMVI > 100 µM | NCI-H460 > 100 µM | UACC-257 > 100 µM | MDA-MB-435 > 100 µM | U-251 > 100 µM | MCF7 > 100 µM | UO-31 > 100 µM | KM12 > 100 µM | SF-539 > 100 µM | HCT-116 > 100 µM | UACC-62 > 100 µM | SNB-75 > 100 µM | BT-549 > 100 µM | HCC 2998 > 100 µM | SK-OV-3 > 100 µM | SK-MEL-5 > 100 µM | NCI-H522 > 100 µM | NCI-H23 > 100 µM | DU-145 > 100 µM | T47D > 100 µM | OVCAR-4 > 100 µM | SW-620 > 100 µM | TK-10 > 100 µM | K562 > 100 µM | EKVX > 100 µM | NCI-H226 > 100 µM | RPMI-8226 > 100 µM | CAKI-1 > 100 µM | MDA-MB-231 > 100 µM | SF-295 > 100 µM | SK-MEL-28 > 100 µM | SNB-19 > 100 µM | 786-0 > 100 µM | HT-29 > 100 µM | OVCAR-8 > 100 µM | Hs-578T > 100 µM

Cn1c2ccccc2n2c(=O)c(-c3ccc(Cl)cc3)nnc12
> 100 µM: HCT-15
inactive: A498 > 100 µM | SN12C > 100 µM | A549 > 100 µM | ACHN > 100 µM | IGROV-1 > 100 µM | HL-60 > 100 µM | MOLT-4 > 100 µM | OVCAR-5 > 100 µM | Malme-3M > 100 µM | MDA-N > 100 µM | COLO 205 > 100 µM | HOP-92 > 100 µM | CCRF-CEM > 100 µM | SR > 100 µM | SF-268 > 100 µM | NCI/ADR-RES > 100 µM | SK-MEL-2 83.4 µM | LOX IMVI > 100 µM | NCI-H460 > 100 µM | UACC-257 > 100 µM | MDA-MB-435 > 100 µM | U-251 > 100 µM | MCF7 > 100 µM | UO-31 > 100 µM | KM12 > 100 µM | SF-539 43.3 µM | HCT-116 > 100 µM | SNB-75 > 100 µM | BT-549 > 100 µM | HCC 2998 > 100 µM | SK-MEL-5 > 100 µM | NCI-H522 > 100 µM | M14 > 100 µM | NCI-H23 > 100 µM | DU-145 > 100 µM | T47D > 100 µM | OVCAR-4 68.4 µM | SW-620 > 100 µM | TK-10 > 100 µM | EKVX > 100 µM | NCI-H226 > 100 µM | CAKI-1 > 100 µM | RXF 393 > 100 µM | MDA-MB-231 51.2 µM | SF-295 > 100 µM | SK-MEL-28 > 100 µM | SNB-19 > 100 µM | 786-0 > 100 µM | HT-29 > 100 µM | OVCAR-8 > 100 µM | Hs-578T > 100 µM

CCOC(=O)c1nc2ccc(C(F)(F)F)cc2nc1Oc1ccc(OC)cc1
inactive: A498 > 100 µM | OVCAR-3 > 100 µM | SN12C > 100 µM | A549 > 100 µM | ACHN > 100 µM | IGROV-1 > 100 µM | MOLT-4 > 100 µM | OVCAR-5 > 100 µM | Malme-3M 62.8 µM | MDA-N > 100 µM | COLO 205 > 100 µM | HOP-92 82.2 µM | CCRF-CEM > 100 µM | SF-268 > 100 µM | NCI/ADR-RES > 100 µM | SK-MEL-2 > 100 µM | PC-3 > 100 µM | LOX IMVI > 100 µM | NCI-H460 > 100 µM | UACC-257 > 100 µM | MDA-MB-435 > 100 µM | HOP-62 > 100 µM | U-251 > 100 µM | MCF7 > 100 µM | UO-31 > 100 µM | KM12 > 100 µM | SF-539 > 100 µM | HCT-116 > 100 µM | UACC-62 > 100 µM | SNB-75 > 100 µM | BT-549 > 100 µM | SK-OV-3 > 100 µM | SK-MEL-5 > 100 µM | M14 > 100 µM | DU-145 > 100 µM | T47D > 100 µM | OVCAR-4 > 100 µM | SW-620 > 100 µM | TK-10 > 100 µM | K562 > 100 µM | EKVX 55.2 µM | NCI-H226 > 100 µM | RPMI-8226 > 100 µM | CAKI-1 9.42 µM | RXF 393 > 100 µM | MDA-MB-231 > 100 µM | SF-295 > 100 µM | SK-MEL-28 > 100 µM | SNB-19 > 100 µM | 786-0 > 100 µM | HT-29 > 100 µM | OVCAR-8 > 100 µM | Hs-578T > 100 µM
> 100 µM: HCT-15
